Assay results reported in patent US20240376073A1 (Hoffmann-La Roche Inc., priority 2021, published 2024).
Structures can show the parent of a compound that is named as a salt.

What follows are compounds tested on Acinetobacter baumannii ATCC17961 (assay: Antimicrobial susceptibility testing: 90% growth inhibitory concentration (IC90) determination). Conditions: Acinetobacter baumannii ATCC17961; Iso-Sensitest broth; growth by OD 600 nm over 16 h; 35±2° C.; read-out: ATCC 17961 IC90.
Type: cell-based
Procedure: The in vitro antimicrobial activity of the compounds was determined according to the following procedure:
The assay used a 10-points Iso-Sensitest broth medium to measure quantitatively the in vitro activity of the compounds against Acinetobacter baumannii ATCC17961.
Stock compounds in DMSO were serially twofold diluted (e.g. range from 50 to 0.097 μM final concentration) in 384 wells microtiter plates and inoculated with 49 μl the bacterial suspension in Iso-Sensitest medium to have a final cell concentration of ˜5×10^(5) CFU/ml in a final volume/well of 50 ul/well. Microtiter plates were incubated at 35±2° C.
Bacterial cell growth was determined with the measurement of optical density at λ=600 nm each 20 minutes over a time course of 16 h. Growth inhibition was calculated during the logarithmic growth of the bacterial cells with determination of the concentration inhibiting 50% (IC50) and 90% (IC90) of the growth.
Table 1 provides the […] growth inhibitory concentrations (IC90) in micromoles per liter of the compounds of present invention obtained against the strain Acinetobacter baumannii ATCC17961.

**Q.** For `Cn1c(-c2ccc(OCC#N)c(F)c2F)cnc1C(=O)Nc1ccc(C(=O)NCCOCC[N+](C)(C)C)c(Cl)c1` [Example A15, 2-[2-[[2-chloro-4-[[5-[4-(cyanomethoxy)-2,3-difluoro-phenyl]-1-methyl-imidazole-2-carbonyl]amino]benzoyl]amino]ethoxy]ethyl-trimethyl-ammonium formate], which IC90 is on record?
**A.** The IC90 was 770 nM.

**Q.** With `Cn1c(-c2ccc(OCC#N)c(F)c2F)cnc1C(=O)Nc1ccc(C(=O)N[C@H]2C[C@@H](NC(=O)C[N+](C)(C)C)C2)c(Cl)c1` [Example A16, [2-[[3-[2-chloro-4-[[5-[4-(cyanomethoxy)-2,3-difluoro-phenyl]-1-methyl-imidazole-2-carbonyl]amino]benzoyl]amino]cyclobutyl]amino]-2-oxo-ethyl]-trimethyl-ammonium formate] as the compound, how does the IC90 read?
**A.** Its IC90 is 88 nM.

**Q.** `Cn1c(-c2ccc(OCC#N)c(F)c2F)cnc1C(=O)Nc1ccc(C(=O)N[C@H]2C[C@@H](NCC[N+](C)(C)C)C2)c(Cl)c1` [Example A17, 2-[[3-[[2-chloro-4-[[5-[4-(cyanomethoxy)-2,3-difluoro-phenyl]-1-methyl-imidazole-2-carbonyl]amino]benzoyl]amino]cyclobutyl]amino]ethyl-trimethyl-ammonium formate] was tested. Which IC90 did it give?
**A.** Its IC90 is 340 nM.

**Q.** For `Cc1cc(NC(=O)c2ncc(-c3ccc(OCC#N)c(F)c3F)n2C)ccc1C(=O)N[C@H]1C[C@@H](NC(=O)C[N+](C)(C)C)C1` [Example A18, [2-[[3-[[4-[5-[4-(cyanomethoxy)-2,3-difluoro-phenyl]-1-methyl-imidazole-2-carbonyl]amino]-2-methyl-benzoyl]amino]cyclobutyl]amino]-2-oxo-ethyl]-trimethyl-ammonium formate], which IC90 is on record?
**A.** The IC90 was 240 nM.

**Q.** How did the IC90 turn out when `Cc1cc(NC(=O)c2ncc(-c3ccc(OCC#N)c(F)c3F)n2C)ccc1C(=O)N[C@H]1C[C@@H](NCC[N+](C)(C)C)C1` [Example A19, 2-[[3-[[4-[[5-[4-(cyanomethoxy)-2,3-difluoro-phenyl]-1-methyl-imidazole-2-carbonyl]amino]-2-methyl-benzoyl]amino]cyclobutyl]amino]ethyl-trimethyl-ammonium formate] was run?
**A.** The IC90 was 1200 nM.

**Q.** With `COc1ccc(-c2cnc(C(=O)Nc3ccc(C(=O)NCc4cn(CCO)[n+](C)c4)c(Cl)c3)n2C)c(F)c1F` [Example A20, N-[3-chloro-4-[[1-(2-hydroxyethyl)-2-methyl-pyrazol-2-ium-4-yl]methylcarbamoyl]phenyl]-5-(2,3-difluoro-4-methoxy-phenyl)-1-methyl-imidazole-2-carboxamide;formate] as the compound, how does the IC90 read?
**A.** The IC90 was 320 nM.

**Q.** With `COc1ccc(-c2cnc(C(=O)Nc3ccc(C(=O)NCc4cn(CCCO)[n+](C)c4)c(Cl)c3)n2C)c(F)c1F` [Example A21, N-[3-chloro-4-[1-(3-hydroxypropyl)-2-methyl-pyrazol-2-ium-4-yl]methylcarbamoyl]phenyl]-5-(2,3-difluoro-4-methoxy-phenyl)-1-methyl-imidazole-2-carboxamide; formate] as the compound, how does the IC90 read?
**A.** Its IC90 is 330 nM.

**Q.** With `COc1ccc(-c2cnc(C(=O)Nc3ccc(C(=O)NCc4cn(CCC#N)[n+](C)c4)c(Cl)c3)n2C)c(F)c1F` [Example A22, N-[3-chloro-4-[1-(2-cyanoethyl)-2-methyl-pyrazol-2-ium-4-yl]methylcarbamoyl]phenyl]-5-(2,3-difluoro-4-methoxy-phenyl)-1-methyl-imidazole-2-carboxamide; formate] as the compound, how does the IC90 read?
**A.** Its IC90 is 390 nM.

**Q.** Which IC90 does the source give for `COc1ccc(-c2cnc(C(=O)Nc3ccc(C(=O)NCc4cn(CC(N)=O)[n+](C)c4)c(Cl)c3)n2C)c(F)c1F` [Example A23, N-[4-[1-(2-amino-2-oxo-ethyl)-2-methyl-pyrazol-2-ium-4-yl]methylcarbamoyl]-3-chloro-phenyl]-5-(2,3-difluoro-4-methoxy-phenyl)-1-methyl-imidazole-2-carboxamide; formate] here?
**A.** Its IC90 is 400 nM.

**Q.** `COCCCn1cc(CNC(=O)c2ccc(NC(=O)c3ncc(-c4ccc(OC)c(F)c4F)n3C)cc2Cl)c[n+]1C` [Example A25, N-[3-chloro-4-[1-(3-methoxypropyl)-2-methyl-pyrazol-2-ium-4-yl]methylcarbamoyl]phenyl]-5-(2,3-difluoro-4-methoxy-phenyl)-1-methyl-imidazole-2-carboxamide; formate] was tested. Which IC90 did it give?
**A.** The IC90 was 410 nM.

**Q.** `COc1ccc(-c2cnc(C(=O)Nc3ccc(C(=O)NCc4cn(CCOCCO)[n+](C)c4)c(Cl)c3)n2C)c(F)c1F` [Example A26, N-[3-chloro-4-[1-[2-(2-hydroxyethoxy)ethyl]-2-methyl-pyrazol-2-ium-4-yl]methylcarbamoyl]phenyl]-5-(2,3-difluoro-4-methoxy-phenyl)-1-methyl-imidazole-2-carboxamide; formate] was tested. Which IC90 did it give?
**A.** The IC90 was 410 nM.

**Q.** For `COc1ccc(-c2cnc(C(=O)Nc3ccc(C(=O)NCc4cnc(NC(=O)[C@@H]5C[C@@H](O)C[N+]5(C)C)s4)c(Cl)c3)n2C)c(F)c1F` [Example A27, N-[3-chloro-4-[[2-[[(2S,4R)-4-hydroxy-1,1-dimethyl-pyrrolidin-1-ium-2-carbonyl]amino]thiazol-5-yl]methylcarbamoyl]phenyl]-5-(2,3-difluoro-4-methoxy-phenyl)-1-methyl-imidazole-2-carboxamide; formate], which IC90 is on record?
**A.** Its IC90 is 56 nM.

**Q.** How did the IC90 turn out when `COc1ccc(-c2cnc(C(=O)Nc3ccc(C(=O)NCc4cnc(NC(=O)C5CCC[N+]5(C)C)s4)c(Cl)c3)n2C)c(F)c1F` (stereo not drawn) [Example A28, N-[3-chloro-4-[2-[(1,1-dimethylpyrrolidin-1-ium-2-carbonyl)amino]thiazol-5-yl]methylcarbamoyl]phenyl]-5-(2,3-difluoro-4-methoxy-phenyl)-1-methyl-imidazole-2-carboxamide; formate] was run?
**A.** The IC90 was 88 nM.

**Q.** For `COc1ccc(-c2cnc(C(=O)Nc3ccc(C(=O)NCc4cnc(NC(=O)C5CC[N+](C)(C)CC5)s4)c(Cl)c3)n2C)c(F)c1F` [Example A29, N-[5-[2-chloro-4-[[5-(2,3-difluoro-4-methoxy-phenyl)-1-methyl-imidazole-2-carbonyl]amino]benzoyl]amino]methyl]thiazol-2-yl]-1,1-dimethyl-piperidin-1-ium-4-carboxamide; formate], which IC90 is on record?
**A.** Its IC90 is 170 nM.

**Q.** For `COc1ccc(-c2cnc(C(=O)Nc3ccc(C(=O)NCc4cnc(NC(=O)C5CC[N+](C)(CC(N)=O)CC5)s4)c(Cl)c3)n2C)c(F)c1F` (stereo not drawn) [Example A30, 1-(2-amino-2-oxo-ethyl)-N-[5-[[[2-chloro-4-[[5-(2,3-difluoro-4-methoxy-phenyl)-1-methyl-imidazole-2-carbonyl]amino]benzoyl]amino]methyl]thiazol-2-yl]-1-methyl-piperidin-1-ium-4-carboxamide; formate], which IC90 is on record?
**A.** Its IC90 is 140 nM.

**Q.** How did the IC90 turn out when `COc1ccc(-c2cnc(C(=O)Nc3ccc(C(=O)N4CCC(C(=O)NCc5cnc(NC(=O)C6CC[N+](C)(C)CC6)s5)CC4)c(Cl)c3)n2C)c(F)c1F` [Example A31, N-[5-[[1-[2-chloro-4-[[5-(2,3-difluoro-4-methoxy-phenyl)-1-methyl-imidazole-2-carbonyl]amino]benzoyl]piperidine-4-carbonyl]amino]methyl]thiazol-2-yl]-1,1-dimethyl-piperidin-1-ium-4-carboxamide; formate] was run?
**A.** The IC90 was 170 nM.

**Q.** `COc1ccc(-c2cnc(C(=O)Nc3ccc(C(=O)N4CCN(C(=O)C[N+](C)(C)CC(N)=O)CC4)c(C)c3)n2C)c(F)c1F` [Example B1, (2-Amino-2-oxo-ethyl)-[2-[4-[4-[[5-(2,3-difluoro-4-methoxy-phenyl)-1-methyl-imidazole-2-carbonyl]amino]-2-methyl-benzoyl]piperazin-1-yl]-2-oxo-ethyl]-dimethyl-ammonium;formate] was tested. Which IC90 did it give?
**A.** Its IC90 is 280 nM.

**Q.** With `Cc1cc(NC(=O)c2ncc(-c3ccc(OCC#N)c(F)c3F)n2C)ccc1C(=O)N1CCN(C(=O)C[N+](C)(C)CC(N)=O)CC1` [Example B2, (2-amino-2-oxo-ethyl)-[2-[4-[4-[[5-[4-(cyanomethoxy)-2,3-difluoro-phenyl]-1-methyl-imidazole-2-carbonyl]amino]-2-methyl-benzoyl]piperazin-1-yl]-2-oxo-ethyl]-dimethyl-mmonium; formate] as the compound, how does the IC90 read?
**A.** Its IC90 is 230 nM.

**Q.** `COc1ccc(-c2cnc(C(=O)Nc3ccc(C(=O)N4CCN(C(=O)CC[N+](C)(C)CC(N)=O)CC4)c(C)c3)n2C)c(F)c1F` [Example B3, (2-amino-2-oxo-ethyl)-[3-[4-[4-[[5-(2,3-difluoro-4-methoxy-phenyl)-1-methyl-imidazole-2-carbonyl]amino]-2-methyl-benzoyl]piperazin-1-yl]-3-oxo-propyl]-dimethyl-ammonium; 2,2,2-trifluoroacetate] was tested. Which IC90 did it give?
**A.** The IC90 was 190 nM.

**Q.** With `Cn1c(-c2ccc(OCC#N)c(F)c2F)cnc1C(=O)Nc1ccc(C(=O)N2CCN(C(=O)C[N+](C)(C)CC(N)=O)CC2)c(Cl)c1` [Example B4, (2-amino-2-oxo-ethyl)-[2-[4-[2-chloro-4-[[5-[4-(cyanomethoxy)-2,3-difluoro-phenyl]-1-methyl-imidazole-2-carbonyl]amino]benzoyl]piperazin-1-yl]-2-oxo-ethyl]-dimethyl-ammonium; formate] as the compound, how does the IC90 read?
**A.** Its IC90 is 110 nM.

Same assay, conditions: Acinetobacter baumannii, ATCC17961, 16 h, read-out: ATCC 17961 IC90, Acinetobacter baumannii ATCC17961; Iso-Sensitest broth; growth by OD 600 nm over 16 h; 35±2° C.

**Q.** How did the IC90 turn out when `COc1ccc(-c2cnc(C(=O)Nc3ccc(C(=O)NCc4cn(CCS(C)(=O)=O)[n+](C)c4)c(Cl)c3)n2C)c(F)c1F` [Example A24, N-[3-chloro-4-[[1-methyl-2-(2-methylsulfonylethyl)pyrazol-1-ium-4-yl]methylcarbamoyl]phenyl]-5-(2,3-difluoro-4-methoxy-phenyl)-1-methyl-imidazole-2-carboxamide; formate] was run?
**A.** Its IC90 is 350 nM.
